# Data from ChEMBL document CHEMBL3774309, “SAR Exploration Guided by LE and Fsp(3): Discovery of a Selective and Orally Efficacious RORγ Inhibitor” (ACS Med Chem Lett, 2016).
# Columns and labels:
# [1] = target: T1, Nuclear receptor ROR-gamma (Mus musculus, UniProt P51450); experiment: Inhibition of mouse RORgamma ligand binding domain (Isoleucine 251 to Lysine 516) expressed in CHOK1 cells incubated for 2 days by Gal4 luciferase reporter gene assay; assay type: cell-based, CHO-K1
# T1 sequence (P51450 whole entry): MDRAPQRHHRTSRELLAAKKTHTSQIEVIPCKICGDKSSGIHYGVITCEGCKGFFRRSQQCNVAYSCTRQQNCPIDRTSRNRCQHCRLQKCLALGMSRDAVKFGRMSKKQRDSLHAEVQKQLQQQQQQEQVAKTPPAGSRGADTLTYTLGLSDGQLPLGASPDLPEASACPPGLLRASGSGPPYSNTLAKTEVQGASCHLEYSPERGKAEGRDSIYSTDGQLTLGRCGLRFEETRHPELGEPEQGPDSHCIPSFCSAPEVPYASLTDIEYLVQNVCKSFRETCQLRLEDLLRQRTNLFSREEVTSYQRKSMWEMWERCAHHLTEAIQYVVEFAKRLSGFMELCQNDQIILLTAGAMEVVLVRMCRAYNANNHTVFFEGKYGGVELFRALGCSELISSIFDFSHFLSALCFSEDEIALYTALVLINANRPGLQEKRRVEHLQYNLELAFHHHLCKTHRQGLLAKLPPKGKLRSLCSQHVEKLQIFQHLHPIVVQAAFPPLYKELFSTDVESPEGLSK
# [2] = target: T2, Nuclear receptor ROR-gamma (Homo sapiens, UniProt P51449)
# T2 sequence (P51449 whole entry): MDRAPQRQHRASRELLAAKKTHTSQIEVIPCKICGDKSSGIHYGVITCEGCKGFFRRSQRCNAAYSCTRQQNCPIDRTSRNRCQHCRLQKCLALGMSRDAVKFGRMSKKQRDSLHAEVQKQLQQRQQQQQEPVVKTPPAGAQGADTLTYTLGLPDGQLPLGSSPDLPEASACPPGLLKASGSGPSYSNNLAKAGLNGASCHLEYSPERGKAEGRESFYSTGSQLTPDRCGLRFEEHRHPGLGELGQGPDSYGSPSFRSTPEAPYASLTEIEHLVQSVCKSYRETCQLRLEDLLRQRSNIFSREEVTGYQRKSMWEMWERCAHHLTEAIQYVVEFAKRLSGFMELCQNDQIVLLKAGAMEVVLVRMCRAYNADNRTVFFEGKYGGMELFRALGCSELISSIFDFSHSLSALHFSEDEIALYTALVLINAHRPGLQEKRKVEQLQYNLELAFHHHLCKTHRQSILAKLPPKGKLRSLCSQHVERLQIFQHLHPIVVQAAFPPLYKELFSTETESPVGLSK
# Description: Inhibition of human RORgamma ligand binding domain (Serine 253 to Lysine 518 residues) expressed in CHOK1 cells incubated for 2 days by Gal4 luciferase reporter gene assay
# [3] = Metabolic stability in liver S9 fraction (unknown origin) assessed as parent compound remaining incubated for 60 mins; assay type: ADME, subcellular; details: human, read-out: Stability
# [4] = Metabolic stability in liver S9 fraction (unknown origin) assessed as parent compound remaining incubated for 10 mins; assay type: ADME, subcellular; details: human, read-out: Stability
# Cytochrome P450 3A4 [5] = target: T3, Cytochrome P450 3A4 (Homo sapiens, UniProt P08684); experiment: Inhibition of CYP3A4 in human liver microsomes using midazolam as substrate preincubated with substrate for 5 mins followed by NADPH addition measured after 20 mins by HPLC analysis; assay type: ADME
# [6] = target: T2, Nuclear receptor ROR-gamma; experiment: Inhibition of human GST-tagged RORgamma ligand binding domain (253 to 518 residues) expressed in sf9 cells using biotin-EEPSLLKKLLLAPA by FRET assay
# [7] = Metabolic stability in human liver microsomes assessed as parent compound remaining incubated for 10 mins; assay type: ADME; details: read-out: Stability
# Cytochrome P450 3A4 [8] = target: T3, Cytochrome P450 3A4; experiment: Inhibition of human CYP3A4
# [9] = target: Peroxisome proliferator-activated receptor alpha (Homo sapiens, UniProt Q07869); experiment: Inhibition of human PPARalpha
# Mus musculus = experiment: Inhibition of MOG/PTX/CD3 antibody-induced IL-17 production in po dosed C57BL/6 mouse plasma adminstered 3 to 8 hrs before CD3 antibody injection by ELISA; assay type: functional, organism-based
# Steroidogenic factor 1 = Steroidogenic factor 1 (Homo sapiens, UniProt Q13285); experiment: Inhibition of human SF-1 receptor
# [10] = target: Nuclear receptor ROR-beta (Homo sapiens, UniProt Q92753); experiment: Inhibition of human RORbeta
# [11] = target: Nuclear receptor ROR-alpha (Homo sapiens, UniProt P35398); experiment: Inhibition of human RORalpha
# [12] = target: Retinoic acid receptor beta (Homo sapiens, UniProt P10826); experiment: Inhibition of human RARbeta
# Vitamin D3 receptor = Vitamin D3 receptor (Homo sapiens, UniProt P11473); experiment: Inhibition of human VDR
# Progesterone receptor = Progesterone receptor (Homo sapiens, UniProt P06401); experiment: Inhibition of human PR
# Cytochrome P450 1A2 = Cytochrome P450 1A2 (Homo sapiens, UniProt P05177); experiment: Inhibition of CYP1A2 in human liver microsomes using ethoxyresorufin as substrate preincubated with substrate for 5 mins followed by NADPH addition measured after 20 mins by HPLC analysis; assay type: ADME
# [13] = target: Retinoic acid receptor alpha (Homo sapiens, UniProt P10276); experiment: Inhibition of human RARalpha
# Cytochrome P450 2C9 = Cytochrome P450 2C9 (Homo sapiens, UniProt P11712); experiment: Inhibition of CYP2C9 in human liver microsomes using diclofenac as substrate preincubated with substrate for 5 mins followed by NADPH addition measured after 20 mins by HPLC analysis; assay type: ADME
# [14] = target: Peroxisome proliferator-activated receptor gamma (Homo sapiens, UniProt P37231); experiment: Inhibition of human PPARgamma
# Cytochrome P450 2D6 = Cytochrome P450 2D6 (Homo sapiens, UniProt P10635); experiment: Inhibition of CYP2D6 in human liver microsomes using bufuralol as substrate preincubated with substrate for 5 mins followed by NADPH addition measured after 20 mins by HPLC analysis; assay type: ADME
# [15] = target: Oxysterols receptor LXR-alpha (Mus musculus, UniProt Q9Z0Y9); experiment: Inhibition of mouse LXRalpha
# [16] = target: Peroxisome proliferator-activated receptor delta (Homo sapiens, UniProt Q03181); experiment: Inhibition of human PPARdelta
# [17] = target: Retinoic acid receptor RXR-alpha (Homo sapiens, UniProt P19793); experiment: Inhibition of human RXRalpha
# Cytochrome P450 2C19 = Cytochrome P450 2C19 (Homo sapiens, UniProt P33261); experiment: Inhibition of CYP2C19 in human liver microsomes using S-mephenytoin as substrate preincubated with substrate for 5 mins followed by NADPH addition measured after 20 mins by HPLC analysis; assay type: ADME
# Bile acid receptor = Bile acid receptor (Homo sapiens, UniProt Q96RI1); experiment: Inhibition of human FXR
# Glucocorticoid receptor = Glucocorticoid receptor (Mus musculus, UniProt P06537); experiment: Inhibition of mouse GR
# Cytochrome P450 2A6 = Cytochrome P450 2A6 (Homo sapiens, UniProt P11509); experiment: Inhibition of CYP2A6 in human liver microsomes using coumarin as substrate preincubated with substrate for 5 mins followed by NADPH addition measured after 20 mins by HPLC analysis; assay type: ADME
# Chain of Cytochrome P450 2A6 (P11509 whole entry): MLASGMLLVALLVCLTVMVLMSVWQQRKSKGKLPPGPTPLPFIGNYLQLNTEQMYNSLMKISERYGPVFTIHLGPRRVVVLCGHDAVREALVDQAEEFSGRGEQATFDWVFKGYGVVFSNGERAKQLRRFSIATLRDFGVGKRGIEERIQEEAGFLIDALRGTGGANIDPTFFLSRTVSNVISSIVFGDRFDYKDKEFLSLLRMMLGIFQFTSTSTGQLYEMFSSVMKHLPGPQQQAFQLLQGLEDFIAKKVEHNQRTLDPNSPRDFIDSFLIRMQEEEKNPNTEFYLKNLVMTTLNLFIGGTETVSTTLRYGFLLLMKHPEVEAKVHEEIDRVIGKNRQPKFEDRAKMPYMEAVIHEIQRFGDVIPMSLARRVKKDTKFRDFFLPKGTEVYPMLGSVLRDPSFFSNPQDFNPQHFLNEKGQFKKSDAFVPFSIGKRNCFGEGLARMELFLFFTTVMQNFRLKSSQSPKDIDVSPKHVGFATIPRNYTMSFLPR
# T3 sequence (P08684 whole entry, the tested form may be a part): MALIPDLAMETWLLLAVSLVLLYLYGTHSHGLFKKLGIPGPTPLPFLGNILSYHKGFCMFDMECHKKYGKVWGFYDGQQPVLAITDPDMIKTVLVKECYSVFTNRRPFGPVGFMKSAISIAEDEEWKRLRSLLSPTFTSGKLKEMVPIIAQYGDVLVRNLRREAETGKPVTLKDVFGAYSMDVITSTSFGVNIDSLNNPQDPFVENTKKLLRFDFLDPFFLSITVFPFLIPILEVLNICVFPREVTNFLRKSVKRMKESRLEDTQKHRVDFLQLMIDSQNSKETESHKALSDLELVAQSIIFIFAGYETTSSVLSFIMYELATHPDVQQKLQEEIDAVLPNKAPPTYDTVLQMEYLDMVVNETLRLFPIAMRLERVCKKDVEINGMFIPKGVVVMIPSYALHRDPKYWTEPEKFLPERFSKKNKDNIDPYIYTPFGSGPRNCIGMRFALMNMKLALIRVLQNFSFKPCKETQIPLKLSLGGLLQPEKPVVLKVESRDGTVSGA
# Chain of Oxysterols receptor LXR-alpha (Q9Z0Y9 whole entry): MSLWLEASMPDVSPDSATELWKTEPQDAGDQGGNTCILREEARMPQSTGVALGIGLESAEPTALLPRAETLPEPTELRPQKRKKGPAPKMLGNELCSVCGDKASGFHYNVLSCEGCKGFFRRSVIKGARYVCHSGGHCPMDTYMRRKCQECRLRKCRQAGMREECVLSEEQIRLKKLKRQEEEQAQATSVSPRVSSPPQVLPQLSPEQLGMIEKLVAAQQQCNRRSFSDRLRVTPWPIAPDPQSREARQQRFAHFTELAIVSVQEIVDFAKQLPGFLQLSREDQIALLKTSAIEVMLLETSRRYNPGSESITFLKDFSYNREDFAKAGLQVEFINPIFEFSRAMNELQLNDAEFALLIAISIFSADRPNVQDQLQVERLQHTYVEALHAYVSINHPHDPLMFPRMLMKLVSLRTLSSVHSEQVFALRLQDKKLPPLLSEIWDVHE
# Chain of Cytochrome P450 2C9 (P11712 whole entry): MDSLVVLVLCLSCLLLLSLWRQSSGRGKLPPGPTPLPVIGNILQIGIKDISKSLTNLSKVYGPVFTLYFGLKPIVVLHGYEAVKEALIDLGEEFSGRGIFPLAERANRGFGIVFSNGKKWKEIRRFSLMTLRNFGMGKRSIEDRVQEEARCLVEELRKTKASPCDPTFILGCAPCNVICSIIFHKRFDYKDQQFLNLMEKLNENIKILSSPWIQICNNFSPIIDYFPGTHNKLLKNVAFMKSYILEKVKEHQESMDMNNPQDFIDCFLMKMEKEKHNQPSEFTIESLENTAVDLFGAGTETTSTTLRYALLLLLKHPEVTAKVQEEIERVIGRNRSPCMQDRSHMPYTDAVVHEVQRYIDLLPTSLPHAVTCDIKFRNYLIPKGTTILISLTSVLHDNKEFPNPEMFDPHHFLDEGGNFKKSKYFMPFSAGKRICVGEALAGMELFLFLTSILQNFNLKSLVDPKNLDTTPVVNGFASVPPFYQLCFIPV
# Chain of Nuclear receptor ROR-beta (Q92753 whole entry): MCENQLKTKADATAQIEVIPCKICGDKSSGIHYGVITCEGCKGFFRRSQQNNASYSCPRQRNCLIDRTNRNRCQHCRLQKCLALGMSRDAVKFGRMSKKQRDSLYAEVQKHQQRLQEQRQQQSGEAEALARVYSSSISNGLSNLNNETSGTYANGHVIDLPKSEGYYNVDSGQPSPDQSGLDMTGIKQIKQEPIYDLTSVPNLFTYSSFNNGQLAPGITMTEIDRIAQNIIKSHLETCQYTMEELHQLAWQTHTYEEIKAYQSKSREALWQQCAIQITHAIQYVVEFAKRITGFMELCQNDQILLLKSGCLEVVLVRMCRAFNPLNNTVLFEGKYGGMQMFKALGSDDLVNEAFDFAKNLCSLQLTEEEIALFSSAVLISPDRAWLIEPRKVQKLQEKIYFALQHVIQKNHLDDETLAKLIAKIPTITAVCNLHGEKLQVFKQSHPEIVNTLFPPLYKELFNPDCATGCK
# Chain of Retinoic acid receptor beta (P10826 whole entry): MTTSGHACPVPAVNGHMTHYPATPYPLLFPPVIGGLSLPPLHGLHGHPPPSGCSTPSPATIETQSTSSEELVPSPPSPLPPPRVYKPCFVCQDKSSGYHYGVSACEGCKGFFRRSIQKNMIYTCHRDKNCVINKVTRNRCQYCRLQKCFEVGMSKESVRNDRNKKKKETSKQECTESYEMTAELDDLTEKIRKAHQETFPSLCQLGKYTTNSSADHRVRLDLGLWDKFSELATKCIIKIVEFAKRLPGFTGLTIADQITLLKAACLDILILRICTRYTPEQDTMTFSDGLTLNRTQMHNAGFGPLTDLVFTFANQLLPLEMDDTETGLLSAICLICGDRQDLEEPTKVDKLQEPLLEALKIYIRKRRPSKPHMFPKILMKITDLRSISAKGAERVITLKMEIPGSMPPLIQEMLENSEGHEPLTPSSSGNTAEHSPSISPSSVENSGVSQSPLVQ
# Chain of Peroxisome proliferator-activated receptor delta (Q03181 whole entry): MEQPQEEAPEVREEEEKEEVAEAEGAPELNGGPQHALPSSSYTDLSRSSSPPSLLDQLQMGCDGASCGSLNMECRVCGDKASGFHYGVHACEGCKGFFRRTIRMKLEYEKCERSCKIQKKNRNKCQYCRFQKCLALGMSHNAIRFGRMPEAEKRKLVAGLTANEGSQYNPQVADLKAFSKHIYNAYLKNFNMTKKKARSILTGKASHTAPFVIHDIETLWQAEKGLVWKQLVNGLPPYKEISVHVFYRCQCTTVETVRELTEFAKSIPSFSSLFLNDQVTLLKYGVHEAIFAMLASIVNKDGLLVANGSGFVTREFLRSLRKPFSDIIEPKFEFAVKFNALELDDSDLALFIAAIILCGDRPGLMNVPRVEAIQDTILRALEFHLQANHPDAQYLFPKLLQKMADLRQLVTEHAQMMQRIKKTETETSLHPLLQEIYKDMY
# Chain of Vitamin D3 receptor (P11473 whole entry): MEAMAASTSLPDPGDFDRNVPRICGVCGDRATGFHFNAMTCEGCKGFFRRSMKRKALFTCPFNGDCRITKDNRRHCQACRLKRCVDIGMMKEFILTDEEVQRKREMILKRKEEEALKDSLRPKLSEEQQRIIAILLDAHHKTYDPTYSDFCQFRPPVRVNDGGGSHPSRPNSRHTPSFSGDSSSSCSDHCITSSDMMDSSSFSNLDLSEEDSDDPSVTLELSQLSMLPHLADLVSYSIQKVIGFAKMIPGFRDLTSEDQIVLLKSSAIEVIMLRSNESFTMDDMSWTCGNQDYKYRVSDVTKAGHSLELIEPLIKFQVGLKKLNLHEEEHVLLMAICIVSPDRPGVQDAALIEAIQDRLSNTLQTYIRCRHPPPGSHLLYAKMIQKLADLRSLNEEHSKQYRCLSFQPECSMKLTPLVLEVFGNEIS
# Chain of Peroxisome proliferator-activated receptor alpha (Q07869 whole entry): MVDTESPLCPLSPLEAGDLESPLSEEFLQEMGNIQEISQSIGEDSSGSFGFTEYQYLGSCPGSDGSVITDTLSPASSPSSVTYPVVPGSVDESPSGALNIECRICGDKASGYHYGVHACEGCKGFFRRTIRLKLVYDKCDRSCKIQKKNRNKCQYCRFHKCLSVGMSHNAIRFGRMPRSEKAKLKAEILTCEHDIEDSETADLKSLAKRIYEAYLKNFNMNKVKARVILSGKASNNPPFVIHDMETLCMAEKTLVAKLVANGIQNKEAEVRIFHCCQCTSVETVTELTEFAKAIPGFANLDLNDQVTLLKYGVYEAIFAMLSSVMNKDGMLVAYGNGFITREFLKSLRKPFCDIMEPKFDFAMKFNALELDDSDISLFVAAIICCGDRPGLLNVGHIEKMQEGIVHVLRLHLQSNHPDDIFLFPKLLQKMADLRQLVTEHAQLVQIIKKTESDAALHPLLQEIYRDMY
# Chain of Cytochrome P450 2D6 (P10635 whole entry): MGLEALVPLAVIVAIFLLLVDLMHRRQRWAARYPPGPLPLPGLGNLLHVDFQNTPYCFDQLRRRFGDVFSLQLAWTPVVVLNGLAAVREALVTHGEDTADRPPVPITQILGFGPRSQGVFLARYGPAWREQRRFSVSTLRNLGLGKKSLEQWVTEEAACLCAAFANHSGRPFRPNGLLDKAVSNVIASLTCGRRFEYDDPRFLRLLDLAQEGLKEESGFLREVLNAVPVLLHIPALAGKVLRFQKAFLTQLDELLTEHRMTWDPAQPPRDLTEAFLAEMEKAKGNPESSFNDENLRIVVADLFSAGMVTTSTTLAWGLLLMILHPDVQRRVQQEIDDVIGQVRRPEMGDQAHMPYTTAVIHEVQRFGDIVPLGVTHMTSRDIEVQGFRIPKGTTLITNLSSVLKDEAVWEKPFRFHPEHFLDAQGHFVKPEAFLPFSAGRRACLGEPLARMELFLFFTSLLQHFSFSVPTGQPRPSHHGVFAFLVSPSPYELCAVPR
smiles,measurement,setting,value
CCn1c(CCC(=O)Nc2cccc3ccccc23)nnc1C1Cc2ccccc2C1,EC50,[1],400 nM
same,EC50,[2],1000 nM
Cc1ccc(NC(=O)[C@H]2C[C@@H](O)C[C@@H]2c2nnc([C@H]3C[C@@H](CC(C)C)C3)n2C2CC2)c(C)c1,EC50,[1],38 nM
same,remaining at 1 h,[3],76%
same,remaining at 10 min,[4],87%
same,IC50,Cytochrome P450 3A4 [5],3000 nM
same,EC50,[2],98 nM
CCn1c(CCC(=O)Nc2cccc3ccccc23)nnc1CCC1CCCCC1,EC50,[1],300 nM
same,EC50,[2],820 nM
CCn1c(CCC(=O)Nc2cccc3ccccc23)nnc1CC1CCCCC1,EC50,[1],2600 nM
same,EC50,[2],14000 nM
Cc1ccc(NC(=O)CCc2nnc([C@H]3C[C@H](CC(C)C)C3)n2C2CC2)c(C)c1,EC50,[1],53 nM
same,remaining at 1 h,[3],31%
same,remaining at 10 min,[4],68%
same,EC50,[2],400 nM
CCn1c(CCC(=O)Nc2cc(C)cc(C)c2)nnc1CCC1CCCCC1,EC50,[1],3100 nM
same,EC50,[2],2900 nM
Cc1ccc(NC(=O)CCc2nnc(CCC3CCCCC3)n2C2CC2(F)F)c(C)c1 (stereo not given),EC50,[1],500 nM
same,remaining at 1 h,[3],59%
same,remaining at 10 min,[4],75%
same,EC50,[2],920 nM
Cc1ccc(NC(=O)[C@H]2CN(C)CC[C@@H]2c2nnc([C@H]3C[C@@H](CC(C)C)C3)n2C2CC2)c(C)c1 (racemic),EC50,[1],290 nM
same,remaining at 1 h,[3],21%
same,remaining at 10 min,[4],53%
same,EC50,[2],230 nM
CCn1c(SCC(=O)Nc2cccc3ccccc23)nnc1C1Cc2ccccc2C1,EC50,[6],850 nM
same,EC50,[1],700 nM
same,remaining at 10 min,[7],18%
same,IC50,Cytochrome P450 3A4 [8],4000 nM
same,EC50,[2],1700 nM
CCn1c(CCC(=O)Nc2ccc(C)cc2C)nnc1CCC1CCCCC1,EC50,[1],600 nM
same,remaining at 10 min,[7],36%
same,remaining at 1 h,[3],0%
same,remaining at 10 min,[4],36%
same,EC50,[2],900 nM
CCn1c(OCC(=O)Nc2cccc3ccccc23)nnc1C1Cc2ccccc2C1,EC50,[1],> 20000 nM
same,EC50,[2],> 20000 nM
CCn1c(C(C)CC(=O)Nc2cccc3ccccc23)nnc1C1Cc2ccccc2C1 (racemic),EC50,[1],1100 nM
same,EC50,[2],1700 nM
CCC(C)CCc1nnc(CCC(=O)Nc2ccc(C)cc2C)n1C1CC1 (racemic),EC50,[1],1400 nM
same,remaining at 1 h,[3],27%
same,remaining at 10 min,[4],63%
same,EC50,[2],3900 nM
CCn1c(CCC(=O)Nc2cccc3ccccc23)nnc1C1CCCCC1,EC50,[1],4500 nM
same,EC50,[2],> 20000 nM
Cc1ccc(NC(=O)CCc2nnc(CCC3CCCCC3)n2C2CCC2)c(C)c1,EC50,[1],1800 nM
same,remaining at 1 h,[3],27%
same,remaining at 10 min,[4],49%
same,EC50,[2],9500 nM
Cc1ccc(NC(=O)CCc2nnc(CCCC(C)C)n2C2CC2)c(C)c1,EC50,[1],610 nM
same,remaining at 1 h,[3],27%
same,remaining at 10 min,[4],67%
same,EC50,[2],1700 nM
Cc1ccc(NC(=O)CCc2nnc(-c3cc(CC(C)C)on3)n2C2CC2)c(C)c1,EC50,[1],54 nM
same,remaining at 1 h,[3],31%
same,remaining at 10 min,[4],83%
same,EC50,[2],450 nM
CCn1c(CCC(=O)Nc2cccc3ccccc23)nnc1CCC(C)C,EC50,[1],1400 nM
same,EC50,[2],13000 nM
Cc1ccc(NC(=O)CCc2nnc(-c3ccc(CC(C)C)cc3)n2C2CC2)c(C)c1,EC50,[1],120 nM
same,remaining at 1 h,[3],55%
same,remaining at 10 min,[4],84%
same,EC50,[2],1800 nM
CC(=O)N1C[C@H](C(=O)Nc2ccc(C)cc2C)[C@@H](c2nnc([C@H]3C[C@@H](CC(C)C)C3)n2C2CC2)C1,EC50,[9],> 20000 nM
same,inhibition,Mus musculus,Dose-dependent effect
same,EC50,Steroidogenic factor 1,> 20000 nM
same,remaining at 1 h,[3],61%
same,EC50,[10],> 20000 nM
same,EC50,[11],> 20000 nM
same,EC50,[12],> 20000 nM
same,remaining at 10 min,[4],86%
same,EC50,Vitamin D3 receptor,> 20000 nM
same,EC50,Progesterone receptor,> 20000 nM
same,IC50,Cytochrome P450 1A2,> 50000 nM
same,EC50,[13],> 20000 nM
same,IC50,Cytochrome P450 2C9,> 50000 nM
same,IC50,Cytochrome P450 3A4 [5],> 50000 nM
same,inhibition (INH),"Cytochrome P450 3A4 [5]; human, microsomes, 20 min, TDE = time-dependent effect",tde
same,EC50,[14],> 20000 nM
same,IC50,Cytochrome P450 2D6,> 50000 nM
same,EC50,[15],> 20000 nM
same,EC50,[16],> 20000 nM
same,EC50,[17],> 20000 nM
same,IC50,Cytochrome P450 2C19,> 50000 nM
same,EC50,Bile acid receptor,> 20000 nM
same,EC50,Glucocorticoid receptor,> 20000 nM
same,IC50,Cytochrome P450 2A6,> 50000 nM
Cc1ccc(NC(=O)CCc2nnc(CCC3CCCCC3)n2C2CC2)c(C)c1,EC50,[1],450 nM
same,remaining at 1 h,[3],23%
same,remaining at 10 min,[4],55%
same,EC50,[2],980 nM
CCn1c(CCC(=O)Nc2cccc(Cl)c2C)nnc1CCC1CCCCC1,EC50,[1],640 nM
same,EC50,[2],960 nM
CCn1c(CCC(=O)Nc2cccc3ccccc23)nnc1CCC(C)(C)C,EC50,[1],830 nM
same,EC50,[2],6700 nM
CCn1c(CCC(=O)Nc2cccc3ccccc23)nnc1CCc1ccccc1,EC50,[1],630 nM
same,EC50,[2],2500 nM
Cc1ccc(NC(=O)CCc2nnc(CCCC(C)(C)C)n2C2CC2)c(C)c1,EC50,[1],1300 nM
same,remaining at 1 h,[3],51%
same,remaining at 10 min,[4],71%
same,EC50,[2],2800 nM
CCn1c(C(O)CC(=O)Nc2cccc3ccccc23)nnc1C1Cc2ccccc2C1 (racemic),EC50,[1],> 20000 nM
same,EC50,[2],> 20000 nM
Cc1ccc(NC(=O)CCc2nnc([C@H]3C[C@@H](CC(C)C)C3)n2C2CC2)c(C)c1,EC50,[1],35 nM
same,remaining at 1 h,[3],39%
same,remaining at 10 min,[4],70%
same,IC50,Cytochrome P450 3A4 [5],5000 nM
same,EC50,[2],140 nM
CCn1c(CC(C)C(=O)Nc2cccc3ccccc23)nnc1C1Cc2ccccc2C1 (racemic),EC50,[1],670 nM
same,EC50,[2],1300 nM
